Assay results taken from patent US20250375471A1, “HEPARANASE INHIBITORS AND METHODS OF USE” (The Board of Regents of the University of Oklahoma, priority 2022, published 2025).
“Also recorded” adds a separate entry of the source.

Legend:
[1] = biological target: T1, HIT antibody complex (Platelet Factor 4 and antibody) (Homo sapiens, UniProt P02776)
T1 sequence (P02776 32-101): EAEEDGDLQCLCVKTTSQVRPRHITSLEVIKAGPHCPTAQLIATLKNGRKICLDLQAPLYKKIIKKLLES
Protocol: ELISA methodology was used to measure the bound antibody as measured by absorbance (at 415 nm) of the product derived from a chromogenic substrate by the enzyme on the secondary antibody probe. […] Heparin derivatives treated to reduce their anticoagulant activity (non-anticoagulant heparin (NACH) or Roneparstat (Rone)) were also tested in the HIT assay.

[2] = biological target: T2, Recombinant human heparanase (Homo sapiens, UniProt Q9Y251); test: Heparanase challenge (PAGE, Stains-All detection); format: biochemical; conditions: heparanase 73 ng, sTestan 180 ng, 24 hours, pH 5, 30° C.
T2 construct: purchased R&D Systems; Minneapolis, MN
T2 sequence (Q9Y251 158-543 limits assumed): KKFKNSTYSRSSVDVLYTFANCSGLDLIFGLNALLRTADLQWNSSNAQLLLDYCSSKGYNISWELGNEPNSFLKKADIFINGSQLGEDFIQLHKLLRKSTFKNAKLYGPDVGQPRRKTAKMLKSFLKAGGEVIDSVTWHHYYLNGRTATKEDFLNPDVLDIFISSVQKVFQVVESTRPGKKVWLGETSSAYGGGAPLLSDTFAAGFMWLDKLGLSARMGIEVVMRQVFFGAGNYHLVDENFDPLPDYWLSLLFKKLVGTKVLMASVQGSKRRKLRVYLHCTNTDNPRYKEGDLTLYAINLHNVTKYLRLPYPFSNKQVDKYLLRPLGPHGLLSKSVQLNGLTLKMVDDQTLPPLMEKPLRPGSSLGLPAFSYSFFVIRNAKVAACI
T2 sequence (Q9Y251 36-109 limits assumed): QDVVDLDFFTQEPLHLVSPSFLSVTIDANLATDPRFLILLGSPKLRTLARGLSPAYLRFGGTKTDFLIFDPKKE
Protocol: The reactions were analyzed by polyacrylamide gel electrophoresis (20% gels, 1×TBE) and Stains-All detection.

[3] = biological target: T2, Recombinant human heparanase; test: Gel-based heparanase enzyme inhibition assay, natural heparan sulfate (HS) substrate; format: biochemical; conditions: various substrate to inhibitor ratios, 30 min time-point
Text: (§1) A gel-based assay was used to monitor the catalytic action of recombinant human heparanase (R&D Systems; Minneapolis, MN) on polysaccharide substrates. In these assays, fluorescent chains were monitored for cleavage; the disappearance of the parental substrate band is readily noticeable. Each chain contains multiple, overlapping heparanase cut sites so there is a gradual decrease in molecular weight over time. This simple, defined assay directly monitors the digestion of polysaccharides (i.e., glycans>˜20 monosaccharide units) that approximate naturally occurring substrates.
(§2) Two types of substrates were employed to follow heparanase activity: (i) a fluorescein end-labeled synthetic O-sulfated O-linked heparosan or (ii) polyacrylamide gel electrophoretically-purified rhodamine-tagged HS. Heparanase (1.3 ng/μl final) was incubated with substrate (synthetic, 57 ng/μl; HS, 3.3 ng/μl) for various times (typically ˜0.2-5 h) in 50 mM sodium acetate, pH 5, 1 mg/ml acetylated bovine serum albumin (Promega; Madison, WI) at 30° C. Aliquots of reactions were analyzed by polyacrylamide gel electrophoresis (2 μl of reaction/lane; 20% gels, 1×TBE) and fluorescence imaging (5-120 sec exposures; ChemiDoc MP). Then the overall size range of the polysaccharide fragments was followed by Stains-All detection.

[4] = biological target: T2, Recombinant human heparanase; test: Gel-based heparanase enzyme inhibition assay, fluorescent synthetic O-sulfated heparosan substrate; format: biochemical
Text: as §1, §2

[5] = background; cited from earlier work

## Roneparstat
[1]
  HIT complex reactivity (competition with plate-bound heparin): less reactive

## heparin
[1]
  HIT complex reactivity (competition with plate-bound heparin): competed well

## sulfated or sulfonated testosteronan [sTestan]
[2]
  digestion/cleavage by human heparanase: recalcitrant to the action of heparanase; also recorded: recalcitrant to digestion by heparanase
[3]
  inhibition of heparanase digestion of natural HS substrate: protecting natural HS from human heparanase digestion
[4]
  fold more active on a molar basis than the heparosan substrate: ≥ 100 fold
[4]; FIG. 7
  heparanase inhibitor potency compared with generic Roneparstat: similarly potent; also recorded: potent competitive inhibitor of human heparanase similar to a known heparanase inhibitor
[4]; titration of inhibitor, 15-min time point, PAGE
  inhibition of heparanase cleavage of fluorescent sulfo-O-linked heparosan substrate: inhibited the digestion of the substrate; also recorded: competitive inhibitor of heparanase

## CC(C)CCC[C@@H](C)[C@H]1CC[C@H]2[C@@H]3CC[C@H]4C[C@@H](O[C@@H]5O[C@H](COS(=O)(=O)O)[C@@H](O[C@H]6O[C@H](COS(=O)(=O)O)[C@@H](O[C@H]7O[C@H](COS(=O)(=O)O)[C@@H](O[C@H]8O[C@H](COS(=O)(=O)O)[C@@H](OS(=O)(=O)O)[C@H](OS(=O)(=O)O)[C@H]8OS(=O)(=O)O)[C@H](OS(=O)(=O)O)[C@H]7OS(=O)(=O)O)[C@H](OS(=O)(=O)O)[C@H]6OS(=O)(=O)O)[C@H](OS(=O)(=O)O)[C@H]5OS(=O)(=O)O)CC[C@]4(C)[C@H]3CC[C@]12C [PG545]
[5]
  cell toxicity: lacks significant anticoagulant activity and cell toxicity
